Assay [1] deals with Total ATXN3 (tATXN3) protein. Nature of the assay: Endogenous Total ATXN3 (tATXN3) Protein Assay (MSD immunoassay of cell lysates). The class given is cell-based. The settings on record: average IC50, total ATXN3 protein in cell lysate after 48 h with compound (Table 1). The procedure, abridged:
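By electrochemiluminescent MSD sandwich immunoassay (mouse monoclonal capture, rabbit monoclonal and SULFO-TAG anti-rabbit detection), endogenous ATXN3 was quantified in lysates of cells treated 48 h at 37° C at 10,000 cells/well. Treatment used a 7-point 3.16-fold duplicate dilution series, with average IC50 grouped into star categories.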

Assay [2] deals with ATXN3 pre-mRNA. Nature of the assay: RT-qPCR Assay to Quantify Exon 4 Skipping in ATXN3 pre-mRNA in Cells. The class given is cell-based. The conditions noted are these: percent exon 4 skipping in ATXN3 pre-mRNA, RT-qPCR of cell lysates; average IC50. The method in brief:
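IC50 derives from a dose-response fit of percent exon 4 skipping, quantified by RT-qPCR on crude lysates. Compounds tested as 7-point 3.16-fold dilutions in duplicate; cells (10,000/well) were exposed for 24 h at 37 °C before lysis.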
(In general: Quantitative PCR measures a nucleic acid by following its amplification.)

Broadly, the IC50 is the concentration at which inhibition is half-maximal.

As for `Cc1c([C@H]2CCCCCC[C@@H]2N)sc2c(NCc3cccs3)cc(Cl)nc12` [Compound 94, 2-((1S,2S)-2-aminocyclooctyl)-5-chloro-3-methyl-N-(thiophen-2-ylmethyl)thieno[3,2-b]pyridin-7-amine], the IC50 in assay [1] is 300 to 1000 nM; in assay [2] it was 30 to 300 nM.

As to `Cc1c([C@@H]2CCCCCC[C@@H]2N)sc2c(NCc3cccs3)cc(Cl)nc12` [Compound 95, 2-((1R,2S)-2-aminocyclooctyl)-5-chloro-3-methyl-N-(thiophen-2-ylmethyl)thieno[3,2-b]pyridin-7-amine], the IC50 in assay [1] and in assay [2] was greater than 1000 nM in each case.

With `N[C@H]1CCCCCC[C@@H]1c1sc2c(NCc3cccs3)cc(Cl)nc2c1Cl` [Compound 96, 2-((1S,2S)-2-aminocyclooctyl)-3,5-dichloro-N-(thiophen-2-ylmethyl)thieno[3,2-b]pyridin-7-amine], the IC50 in assay [1] and in assay [2] was 30 to 300 nM each time.

Consider `N[C@@H]1CCCCCC[C@H]1c1sc2c(NCc3cccs3)cc(Cl)nc2c1Cl` [Compound 97, 2-((1R,2R)-2-aminocyclooctyl)-3,5-dichloro-N-(thiophen-2-ylmethyl)thieno[3,2-b]pyridin-7-amine], for which the IC50 in assay [1] and in assay [2] was greater than 1000 nM each time.

With `N[C@@H]1CCCCCC[C@@H]1c1sc2c(NCc3cccs3)cc(Cl)nc2c1Cl` [Compound 98, 2-((1S,2R)-2-aminocyclooctyl)-3,5-dichloro-N-(thiophen-2-ylmethyl)thieno[3,2-b]pyridin-7-amine], the IC50 in assay [1] and in assay [2] was greater than 1000 nM in each case.

For `N[C@H]1CCCCCC[C@@H]1c1sc2c(NCc3cccs3)cc(Cl)nc2c1Br` [Compound 99, 2-((1S,2S)-2-aminocyclooctyl)-3-bromo-5-chloro-N-(thiophen-2-ylmethyl)thieno[3,2-b]pyridin-7-amine], the IC50 in assay [1] and in assay [2] was 30 to 300 nM each time.

As to `N[C@@H]1CCCCCC[C@H]1c1sc2c(NCc3cccs3)cc(Cl)nc2c1Br` [Compound 100, 2-((1R,2R)-2-aminocyclooctyl)-3-bromo-5-chloro-N-(thiophen-2-ylmethyl)thieno[3,2-b]pyridin-7-amine], the IC50 in assay [1] and in assay [2] was greater than 1000 nM throughout.

As for `N[C@@H]1CCCCCC[C@@H]1c1sc2c(NCc3cccs3)cc(Cl)nc2c1Br` [Compound 101, 2-((1S,2R)-2-aminocyclooctyl)-3-bromo-5-chloro-N-(thiophen-2-ylmethyl)thieno[3,2-b]pyridin-7-amine], the IC50 in assay [1] and in assay [2] was greater than 1000 nM in each case.

In the case of `N[C@H]1CCCCCC[C@H]1c1sc2c(NCc3cccs3)cc(Cl)nc2c1Br` [Compound 102, 2-((1R,2S)-2-aminocyclooctyl)-3-bromo-5-chloro-N-(thiophen-2-ylmethyl)thieno[3,2-b]pyridin-7-amine], the IC50 in assay [1] and in assay [2] was greater than 1000 nM each time.

Consider `N[C@H]1CCCCCC[C@@H]1c1cc2nc(Cl)cc(NCc3cccs3)c2s1` [Compound 103, 2-((1S,2S)-2-aminocyclooctyl)-5-chloro-N-(thiophen-2-ylmethyl)thieno[3,2-b]pyridin-7-amine], for which the IC50 in assay [1] and in assay [2] was greater than 1000 nM throughout.

`N[C@H]1CCCCCC[C@H]1c1cc2nc(Cl)cc(NCc3cccs3)c2s1` [Compound 104, 2-((1R,2S)-2-aminocyclooctyl)-5-chloro-N-(thiophen-2-ylmethyl)thieno[3,2-b]pyridin-7-amine]: the IC50 in assay [1] and in assay [2] was greater than 1000 nM in each case.

For the compound `N[C@@H]1CCCCCC[C@H]1c1cc2nc(Cl)cc(NCc3cccs3)c2s1` [Compound 105, 2-((1R,2R)-2-aminocyclooctyl)-5-chloro-N-(thiophen-2-ylmethyl)thieno[3,2-b]pyridin-7-amine], the IC50 in assay [1] and in assay [2] was greater than 1000 nM each time.

On to `N[C@@H]1CCCCCC[C@@H]1c1cc2nc(Cl)cc(NCc3cccs3)c2s1` [Compound 106, 2-((1S,2R)-2-aminocyclooctyl)-5-chloro-N-(thiophen-2-ylmethyl)thieno[3,2-b]pyridin-7-amine], for which the IC50 in assay [1] and in assay [2] was greater than 1000 nM each time.

In the case of `Cc1c([C@H]2CCC[C@@H]2N)sc2c(NCc3ccccc3)cc(Cl)nc12` [Compound 107, 2-((1S,2S)-2-aminocyclopentyl)-N-benzyl-5-chloro-3-methylthieno[3,2-b]pyridin-7-amine], the concentration for half-maximal inhibition (IC50) in assay [1] and in assay [2] was 300 to 1000 nM in each case.

For the compound `N[C@H]1CCCO[C@@H]1c1sc2c(NCc3ccccc3)cc(Cl)nc2c1Br` [Compound 108, 2-((2S,3S)-3-aminotetrahydro-2H-pyran-2-yl)-N-benzyl-3-bromo-5-chlorothieno[3,2-b]pyridin-7-amine], the 50% inhibitory concentration (IC50) in assay [1] and in assay [2] was no more than 30 nM each time.

`Cc1c([C@@H]2OCCC[C@H]2N)sc2c(NCc3ccccc3)cc(Cl)nc12` [Compound 109, 2-((2R,3R)-3-aminotetrahydro-2H-pyran-2-yl)-N-benzyl-5-chloro-3-methylthieno[3,2-b]pyridin-7-amine]: the IC50 in assay [1] and in assay [2] was 30 to 300 nM throughout.

Turning to `N[C@H]1CCCO[C@@H]1c1sc2c(NCc3ccccc3)cc(Cl)nc2c1Cl` [Compound 110, 2-((2S,3S)-3-aminotetrahydro-2H-pyran-2-yl)-N-benzyl-3,5-dichlorothieno[3,2-b]pyridin-7-amine], the IC50 in assay [1] was 30 to 300 nM; in assay [2], no more than 30 nM.

Take `N[C@H]1CCC[C@H]1c1cc2nc(Cl)cc(NCc3cccs3)c2s1` [Compound 111, 2-((1R,2S)-2-aminocyclopentyl)-5-chloro-N-(thiophen-2-ylmethyl)thieno[3,2-b]pyridin-7-amine]: the figures for the concentration for half-maximal inhibition (IC50) in assay [1] and in assay [2] were greater than 1000 nM and 300 to 1000 nM, respectively.

For `N[C@@H]1CCC[C@H]1c1cc2nc(Cl)cc(NCc3cccs3)c2s1` [Compound 112, 2-((1R,2R)-2-aminocyclopentyl)-5-chloro-N-(thiophen-2-ylmethyl)thieno[3,2-b]pyridin-7-amine], the IC50 in assay [1] and in assay [2] was greater than 1000 nM in each case.

Consider `N[C@@H]1CCCO[C@H]1c1sc2c(NCc3ccccc3)cc(Cl)nc2c1Br` [Compound 113, 2-((2R,3R)-3-aminotetrahydro-2H-pyran-2-yl)-N-benzyl-3-bromo-5-chlorothieno[3,2-b]pyridin-7-amine], for which the IC50 in assay [1] and in assay [2] was greater than 1000 nM each time.

With `N[C@@H]1CCC[C@H]1c1sc2c(NCc3ccco3)cc(Cl)nc2c1Cl` [Compound 114, 2-((1R,2R)-2-aminocyclopentyl)-3,5-dichloro-N-(furan-2-ylmethyl)thieno[3,2-b]pyridin-7-amine], the IC50 in assay [1] and in assay [2] was greater than 1000 nM each time.

As for `N[C@H]1CCCO[C@@H]1c1sc2c(NCc3ccco3)cc(Cl)nc2c1Br` [Compound 115, 2-((2S,3S)-3-aminotetrahydro-2H-pyran-2-yl)-3-bromo-5-chloro-N-(furan-2-ylmethyl)thieno[3,2-b]pyridin-7-amine], the IC50 in assay [1] and in assay [2] was no more than 30 nM throughout.

Regarding `N[C@H]1CCCO[C@@H]1c1sc2c(NCc3ccco3)cc(Cl)nc2c1Cl` [Compound 116, 2-((2S,3S)-3-aminotetrahydro-2H-pyran-2-yl)-3,5-dichloro-N-(furan-2-ylmethyl)thieno[3,2-b]pyridin-7-amine], the IC50 in assay [1] and in assay [2] was no more than 30 nM throughout.

The values above are taken from US20250382305A1 (PTC THERAPEUTICS, INC., priority 2022, published 2025).
